Legend:
p110 δ (RAJI cells) = p110 δ (RAJI cells) (Homo sapiens (Human), UniProt O00329); assay: PI3K-δ selective cellular assay: phospho-AKT in anti-human IgM stimulated RAJI cells; format: cell-based; settings: serum-starved RAJI cells stimulated with anti-human IgM
Excerpt: A compound's ability in selectively inhibiting PI3K-δ can be assessed using RAJI cells, i.e., B lymphocyte cells derived from lymphoma patients. Briefly, serum-starved RAJI cells are stimulated with anti-human IgM, thereby causing signaling through the B-cell receptors, as described in, for example, He et al., Leukemia Research (2009) 33: 798-802. B-cell receptor signaling is important for the activation, differentiation, and survival of B cells and certain B-cell derived cancers. Reduction of phospho-AKT is indicative of compounds that may inhibit B-cell proliferation and function in certain diseases. […] Certain compounds provided herein were tested in RAJI cell model using procedures as described above.

p110 γ (RAW264.7 cells) = p110 γ (RAW264.7 cells) (Mus musculus (Mouse), UniProt Q9JHG7); assay: PI3K-γ selective cellular assay: phospho-AKT in C5a stimulated RAW264.7 macrophages; format: cell-based; settings: serum-starved RAW264.7 cells stimulated with C5a
Description: Certain compounds provided herein were tested in RAW 264.7 cell model using procedures as described above.

[1] = target: human Class I PI3 kinase β (Homo sapiens (Human), UniProt P42338); assay: PI3-Kinase Promega ADP-Glo Max assay, β isoform; format: biochemical; settings: 40 nM kinase, 3 mM ATP, 500 uM diC8-PtdInsP; read-out: Promega β PI3K IC50
Description: Promega ADP-Glo Max assay kit (Cat. No. V7002) was utilized to determine IC50 values for α, β, δ and γ isoforms of human Class I PI3 kinases (Millipore). […] Reactions were incubated at room temperature for 2 hours followed by addition of 25 uL of stop solution. After a 40-minute incubation at room temperature, 50 uL of Promega detection mix was added followed by incubation for 1 hour at room temperature. Plates were then read on Envision plate reader in luminescence mode. Data was converted to % inhibition using the following equation below:

[2] = target: human Class I PI3 kinase δ (Homo sapiens (Human), UniProt O00329); assay: PI3-Kinase Promega ADP-Glo Max assay, δ isoform; format: biochemical; settings: 20 nM kinase, 3 mM ATP, 500 uM diC8-PtdInsP; read-out: Promega δ PI3K IC50
Sequence of human Class I PI3 kinase δ (O00329 whole entry, canonical isoform): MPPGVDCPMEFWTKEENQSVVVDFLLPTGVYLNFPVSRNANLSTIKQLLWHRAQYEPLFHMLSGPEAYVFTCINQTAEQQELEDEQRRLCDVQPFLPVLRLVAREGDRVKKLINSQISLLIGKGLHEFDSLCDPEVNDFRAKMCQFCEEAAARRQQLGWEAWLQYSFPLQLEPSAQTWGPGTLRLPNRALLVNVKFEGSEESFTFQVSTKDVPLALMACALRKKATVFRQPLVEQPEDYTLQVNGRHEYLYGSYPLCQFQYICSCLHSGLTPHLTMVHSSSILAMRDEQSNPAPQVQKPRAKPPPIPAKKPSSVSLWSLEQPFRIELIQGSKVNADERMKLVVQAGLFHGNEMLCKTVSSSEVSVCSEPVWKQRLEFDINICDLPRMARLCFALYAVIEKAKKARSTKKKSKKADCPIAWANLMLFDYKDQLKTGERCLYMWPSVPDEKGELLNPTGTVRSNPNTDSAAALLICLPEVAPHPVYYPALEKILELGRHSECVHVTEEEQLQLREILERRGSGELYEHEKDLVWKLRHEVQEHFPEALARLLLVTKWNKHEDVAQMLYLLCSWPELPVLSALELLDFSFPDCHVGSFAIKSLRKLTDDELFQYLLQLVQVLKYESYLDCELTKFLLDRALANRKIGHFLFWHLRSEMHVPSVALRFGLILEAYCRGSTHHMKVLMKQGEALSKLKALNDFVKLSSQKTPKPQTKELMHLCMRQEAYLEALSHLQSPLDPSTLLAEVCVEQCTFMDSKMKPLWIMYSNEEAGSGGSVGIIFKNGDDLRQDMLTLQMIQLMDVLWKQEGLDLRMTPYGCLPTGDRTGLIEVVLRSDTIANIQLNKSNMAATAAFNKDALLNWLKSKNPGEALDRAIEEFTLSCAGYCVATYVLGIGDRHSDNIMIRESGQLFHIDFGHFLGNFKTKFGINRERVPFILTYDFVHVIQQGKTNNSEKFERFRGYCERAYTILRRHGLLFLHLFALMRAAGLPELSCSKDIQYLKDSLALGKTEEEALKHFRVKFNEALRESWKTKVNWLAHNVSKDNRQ
Sequence of human Class I PI3 kinase δ (P27986 whole entry partner, canonical isoform): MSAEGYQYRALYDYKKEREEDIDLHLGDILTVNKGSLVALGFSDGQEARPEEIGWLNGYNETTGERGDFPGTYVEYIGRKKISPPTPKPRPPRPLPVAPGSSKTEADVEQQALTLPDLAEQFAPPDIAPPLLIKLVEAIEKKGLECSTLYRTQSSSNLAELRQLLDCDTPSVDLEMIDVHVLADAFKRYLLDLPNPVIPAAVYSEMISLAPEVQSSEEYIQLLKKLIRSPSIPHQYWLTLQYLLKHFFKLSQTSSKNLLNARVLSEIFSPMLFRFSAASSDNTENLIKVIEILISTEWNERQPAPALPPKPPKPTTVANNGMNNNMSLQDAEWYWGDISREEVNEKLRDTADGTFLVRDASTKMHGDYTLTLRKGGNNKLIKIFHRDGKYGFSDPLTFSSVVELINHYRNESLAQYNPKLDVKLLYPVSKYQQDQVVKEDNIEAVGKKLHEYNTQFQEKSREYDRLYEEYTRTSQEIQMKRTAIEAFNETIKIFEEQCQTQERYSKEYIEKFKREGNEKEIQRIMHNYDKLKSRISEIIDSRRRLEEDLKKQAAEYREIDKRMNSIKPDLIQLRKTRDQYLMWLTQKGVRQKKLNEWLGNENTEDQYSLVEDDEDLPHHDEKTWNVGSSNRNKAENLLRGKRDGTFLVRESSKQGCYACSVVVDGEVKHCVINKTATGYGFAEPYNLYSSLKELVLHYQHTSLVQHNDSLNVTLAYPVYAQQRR
Description: (§1) Promega ADP-Glo Max assay kit (Cat. No. V7002) was utilized to determine IC50 values for α, β, δ and γ isoforms of human Class I PI3 kinases (Millipore). […] Reactions were incubated at room temperature for 2 hours followed by addition of 25 uL of stop solution. After a 40-minute incubation at room temperature, 50 uL of Promega detection mix was added followed by incubation for 1 hour at room temperature. Plates were then read on Envision plate reader in luminescence mode. Data was converted to % inhibition using the following equation below: [formula] where S is the sample luminescence, Pos is a positive control without added PI3K, Neg is the negative control without added compound. Data was then plotted as % inhibition vs compound concentration.

[3] = target: human Class I PI3 kinase α (Homo sapiens (Human), UniProt P42336); assay: PI3-Kinase Promega ADP-Glo Max assay, α isoform; format: biochemical; settings: 20 nM kinase, 3 mM ATP, 500 uM diC8-PtdInsP; read-out: Promega α PI3K IC50
Sequence of human Class I PI3 kinase α (P42336 whole entry, canonical isoform): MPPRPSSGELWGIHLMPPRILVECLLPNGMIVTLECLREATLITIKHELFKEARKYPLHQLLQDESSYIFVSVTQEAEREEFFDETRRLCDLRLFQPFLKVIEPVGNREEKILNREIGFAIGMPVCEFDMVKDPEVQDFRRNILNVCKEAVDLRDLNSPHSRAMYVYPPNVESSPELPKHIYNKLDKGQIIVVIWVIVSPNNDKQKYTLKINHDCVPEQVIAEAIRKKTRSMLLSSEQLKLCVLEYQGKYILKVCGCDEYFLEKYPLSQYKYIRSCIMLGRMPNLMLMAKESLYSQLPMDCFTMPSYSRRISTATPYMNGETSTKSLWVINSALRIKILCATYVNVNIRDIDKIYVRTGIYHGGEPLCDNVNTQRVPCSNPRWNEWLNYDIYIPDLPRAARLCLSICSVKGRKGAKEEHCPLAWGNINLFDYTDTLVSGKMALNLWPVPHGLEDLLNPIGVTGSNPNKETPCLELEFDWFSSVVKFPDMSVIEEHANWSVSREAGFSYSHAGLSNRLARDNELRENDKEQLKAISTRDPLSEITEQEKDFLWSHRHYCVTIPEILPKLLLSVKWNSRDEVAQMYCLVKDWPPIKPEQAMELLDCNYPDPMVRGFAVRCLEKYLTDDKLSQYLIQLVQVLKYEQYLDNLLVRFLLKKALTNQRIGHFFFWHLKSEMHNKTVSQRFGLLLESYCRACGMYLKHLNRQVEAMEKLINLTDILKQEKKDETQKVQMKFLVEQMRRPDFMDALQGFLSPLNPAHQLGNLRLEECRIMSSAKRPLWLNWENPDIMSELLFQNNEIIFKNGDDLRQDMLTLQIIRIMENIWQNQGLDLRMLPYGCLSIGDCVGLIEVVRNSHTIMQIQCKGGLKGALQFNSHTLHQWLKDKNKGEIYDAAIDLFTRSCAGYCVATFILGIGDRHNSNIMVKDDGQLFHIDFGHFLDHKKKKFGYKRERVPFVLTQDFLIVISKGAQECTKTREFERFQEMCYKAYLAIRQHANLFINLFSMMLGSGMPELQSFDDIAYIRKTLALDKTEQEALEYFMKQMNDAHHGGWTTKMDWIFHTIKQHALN
Sequence of human Class I PI3 kinase α (P27986 whole entry partner, canonical isoform): as the sequence (P27986 whole entry partner, canonical isoform) above
Description: as §1

[4] = target: human Class I PI3 kinase γ (Homo sapiens (Human), UniProt P48736); assay: PI3-Kinase Promega ADP-Glo Max assay, γ isoform; format: biochemical; settings: 40 nM kinase, 3 mM ATP, 500 uM diC8-PtdInsP; read-out: Promega γ PI3K IC50
Sequence of human Class I PI3 kinase γ (P48736 whole entry, canonical isoform): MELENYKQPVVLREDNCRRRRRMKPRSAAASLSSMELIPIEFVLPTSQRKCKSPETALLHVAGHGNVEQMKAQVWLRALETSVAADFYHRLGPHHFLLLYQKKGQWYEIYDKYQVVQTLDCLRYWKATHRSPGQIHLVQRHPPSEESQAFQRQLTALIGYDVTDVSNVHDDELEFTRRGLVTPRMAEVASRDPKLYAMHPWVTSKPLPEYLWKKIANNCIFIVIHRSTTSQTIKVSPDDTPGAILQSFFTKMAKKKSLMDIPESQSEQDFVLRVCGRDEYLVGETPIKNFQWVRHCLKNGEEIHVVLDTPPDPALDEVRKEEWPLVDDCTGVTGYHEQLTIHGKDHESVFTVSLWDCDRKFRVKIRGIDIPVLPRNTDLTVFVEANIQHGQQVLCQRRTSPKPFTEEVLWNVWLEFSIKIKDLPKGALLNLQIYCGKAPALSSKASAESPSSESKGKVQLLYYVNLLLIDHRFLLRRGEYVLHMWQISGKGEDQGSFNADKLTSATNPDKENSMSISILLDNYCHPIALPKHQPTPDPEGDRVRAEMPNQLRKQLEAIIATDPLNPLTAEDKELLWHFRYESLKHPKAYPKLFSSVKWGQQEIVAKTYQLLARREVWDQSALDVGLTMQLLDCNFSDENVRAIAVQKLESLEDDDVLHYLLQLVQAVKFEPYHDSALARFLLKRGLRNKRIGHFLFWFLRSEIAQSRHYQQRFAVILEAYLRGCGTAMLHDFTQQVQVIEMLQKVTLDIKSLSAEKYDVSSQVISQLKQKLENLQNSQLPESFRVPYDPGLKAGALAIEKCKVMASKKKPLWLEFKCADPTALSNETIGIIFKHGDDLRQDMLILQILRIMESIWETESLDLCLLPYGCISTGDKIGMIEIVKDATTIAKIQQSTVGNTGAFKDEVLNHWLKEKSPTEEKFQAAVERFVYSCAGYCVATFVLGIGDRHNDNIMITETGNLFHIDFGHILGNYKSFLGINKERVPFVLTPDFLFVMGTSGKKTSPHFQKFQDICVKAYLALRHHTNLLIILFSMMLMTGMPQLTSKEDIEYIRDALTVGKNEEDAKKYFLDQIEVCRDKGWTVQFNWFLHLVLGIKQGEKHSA
Description: Promega ADP-Glo Max assay kit (Cat. No. V7002) was utilized to determine IC50 values for α, β, δ and γ isoforms of human Class I PI3 kinases (Millipore). Samples of kinase (20 nM α or δ, 40 nM β or γ isoform) were incubated with compound for 15 minutes at room temperature in reaction buffer (15 mM HEPES pH 7.4, 20 mM NaCl, 1 mM EGTA, 0.02% Tween 20, 10 mM MgCl2, 0.2 mg/mL bovine-γ-globulins) followed by addition of ATP/diC8-PtdInsP mixture to give final concentrations of 3 mM ATP and 500 uM diC8-PtdInsP. Reactions were incubated at room temperature for 2 hours followed by addition of 25 uL of stop solution. After a 40-minute incubation at room temperature, 50 uL of Promega detection mix was added followed by incubation for 1 hour at room temperature. Plates were then read on Envision plate reader in luminescence mode. Data was converted to % inhibition using the following equation below:
[formula] where S is the sample luminescence, Pos is a positive control without added PI3K, Neg is the negative control without added compound. Data was then plotted as % inhibition vs compound concentration.
Certain compounds provided herein were tested in PI3-Kinase Promega Assay using procedures as described above to determine IC50 values for α, β, δ and/or γ isoforms.

Sequence of p110 δ (RAJI cells) (O00329 whole entry): as the sequence (O00329 whole entry, canonical isoform) above
Sequence of p110 δ (RAJI cells) (P27986 whole entry partner): as the sequence (P27986 whole entry partner, canonical isoform) above

SMILES | IC50 (p110 δ (RAJI cells)) [nM] | IC50 (p110 γ (RAW264.7 cells)) [nM] | IC50 [1] [nM] | IC50 [2] [nM] | IC50 [3] [nM] | IC50 [4] [nM]
C[C@H](NC(=O)c1c(N)nn2cccnc12)c1cc2cccc(OCc3cnn(C)c3)c2c(=O)n1-c1ccccc1 [Compound 67] | 1000 to 10000 | 10 to 100 | 1000 to 10000 | 1000 to 10000 | 1000 to 10000 | 500 to 1000
C[C@H](NC(=O)c1c(N)nn2cccnc12)c1cc2cccc(Cl)c2c(=O)n1-c1ccccc1O [Compound 68] | 1 to 10 | 1 to 10 | 100 to 500 | 500 to 1000 | 1000 to 10000 | 10 to 100
C[C@H](NC(=O)c1c(N)nn2cccnc12)c1cc2cccc(Cl)c2c(=O)n1-c1cccc(O)c1 [Compound 69] | 1 to 10 | 10 to 100 | 10 to 100 | 100 to 500 | 1000 to 10000 | 10 to 100
C[C@H](NC(=O)c1c(N)nn2cccnc12)c1cc2cccc(Cl)c2c(=O)n1-c1ccc(O)cc1 [Compound 70] | 1 to 10 | 10 to 100 | 1 to 10 | 100 to 500 | 1000 to 10000 | 10 to 100
C[C@H](NC(=O)c1c(N)nn2cccnc12)c1cc2cccc(Cl)c2c(=O)n1C1CCC1 [Compound 71] | 10 to 100 | 10 to 100 | 500 to 1000 | 1000 to 10000 | 1000 to 10000 | 1000 to 10000
C[C@H](NC(=O)c1c(N)nn2cccnc12)c1cc2cccc(Cl)c2c(=O)n1C1CC(NS(C)(=O)=O)C1 (stereo partly drawn) [Compound 72] | 10 to 100 | 100 to 500 | 100 to 500 | 1000 to 10000 | 1000 to 10000 | 1000 to 10000
Cc1ccccc1-n1c([C@H](C)NC(=O)c2c(N)nn3cccnc23)cc2cccc(Cl)c2c1=O [Compound 73] | 10 to 100 | 1 to 10 | 100 to 500 | 500 to 1000 | 1000 to 10000 | 100 to 500
Cc1cccc(-n2c([C@H](C)NC(=O)c3c(N)nn4cccnc34)cc3cccc(Cl)c3c2=O)c1 [Compound 74] | 10 to 100 | 10 to 100 | 1000 to 10000 | 500 to 1000 | 1000 to 10000 | 100 to 500
Cc1ccc(-n2c([C@H](C)NC(=O)c3c(N)nn4cccnc34)cc3cccc(Cl)c3c2=O)cc1 [Compound 75] | 10 to 100 | 10 to 100 | 1000 to 10000 | 1000 to 10000 | 1000 to 10000 | 100 to 500
C[C@H](NC(=O)c1c(N)nn2cccnc12)c1cc2cccc(Cl)c2c(=O)n1-c1cccnc1 [Compound 76] | 100 to 500 | 10 to 100 | 500 to 1000 | 1000 to 10000 | 1000 to 10000 | 100 to 500
C[C@H](NC(=O)c1c(N)nn2cccnc12)c1cc2cccc(Cl)c2c(=O)n1-c1cccc(S(C)(=O)=O)c1 [Compound 77] | 100 to 500 | 100 to 500 | 500 to 1000 | 1000 to 10000 | 1000 to 10000 | 500 to 1000
C[C@H](NC(=O)c1c(N)nn2cccnc12)c1cc2cccc(Cl)c2c(=O)n1-c1ccccc1NS(C)(=O)=O [Compound 78] | 100 to 500 | 10 to 100 | 1000 to 10000 | 1000 to 10000 | 1000 to 10000 | 100 to 500
C[C@H](NC(=O)c1c(N)nn2cccnc12)c1cc2cccc(Cl)c2c(=O)n1-c1cccc(NS(C)(=O)=O)c1 [Compound 79] | 10 to 100 | 100 to 500 | 100 to 500 | 500 to 1000 | 1000 to 10000 | 100 to 500
C[C@H](NC(=O)c1c(N)nn2cccnc12)c1cc2cccc(Cl)c2c(=O)n1-c1ccc(S(C)(=O)=O)cc1 [Compound 80] | 500 to 1000 | 1000 to 10000 | 1000 to 10000 | 1000 to 10000 | 1000 to 10000 | 1000 to 10000
C[C@H](NC(=O)c1c(N)nn2cccnc12)c1cc2cccc(Cl)c2c(=O)n1-c1ccc(NS(C)(=O)=O)cc1 [Compound 81] | 100 to 500 | 1000 to 10000 | 500 to 1000 | 1000 to 10000 | 1000 to 10000 | 1000 to 10000
Cc1ccnc2c(C(=O)N[C@@H](C)c3cc4cccc(Cl)c4c(=O)n3-c3ccccc3)c(N)nn12 [Compound 82] | 10 to 100 | 10 to 100 | 1000 to 10000 | 1000 to 10000 | 1000 to 10000 | 500 to 1000
C[C@H](NC(=O)c1c(N)nn2cccnc12)c1cc2cccc(Cl)c2c(=O)n1-c1ccccc1S(C)(=O)=O [Compound 83] | 1000 to 10000 | 500 to 1000 | 1000 to 10000 | 1000 to 10000 | 1000 to 10000 | 1000 to 10000
C[C@H](NC(=O)c1c(N)nn2cccnc12)c1cc2cccc(Cl)c2c(=O)n1-c1ccccc1F [Compound 84] | 10 to 100 | 10 to 100 | 100 to 500 | 500 to 1000 | 1000 to 10000 | 100 to 500
COc1ccccc1-n1c([C@H](C)NC(=O)c2c(N)nn3cccnc23)cc2cccc(Cl)c2c1=O [Compound 85] | 100 to 500 | 10 to 100 | 500 to 1000 | 500 to 1000 | 1000 to 10000 | 100 to 500
C[C@H](NC(=O)c1c(N)nn2cccnc12)c1cc2cccc(OCC(F)(F)F)c2c(=O)n1-c1ccccc1 [Compound 86] | 1000 to 10000 | 100 to 500 | 1000 to 10000 | 1000 to 10000 | 1000 to 10000 | 1000 to 10000
C[C@H](NC(=O)c1c(N)nn2cccnc12)c1nc2c(Cl)cccc2c(=O)n1-c1ccccc1 [Compound 87] | 100 to 500 | 100 to 500 | 1000 to 10000 | 1000 to 10000 | 1000 to 10000 | 1000 to 10000
CC(=O)Cc1cccc2nc([C@H](C)NC(=O)c3c(N)nn4cccnc34)n(-c3ccccc3)c(=O)c12 [Compound 89] | 100 to 500 | 10 to 100 | 1000 to 10000 | 500 to 1000 | 1000 to 10000 | 500 to 1000
C[C@H](NC(=O)c1c(N)nn2cccnc12)c1nc2cccc(N3CCOCC3)c2c(=O)n1-c1ccccc1 [Compound 90] | 1000 to 10000 | 500 to 1000 | 1000 to 10000 | 1000 to 10000 | 1000 to 10000 | 1000 to 10000
C[C@H](NC(=O)c1c(N)nn2cccnc12)c1nc2cccc(Cl)c2c(=O)n1-c1ccc(F)c(F)c1 [Compound 91] | 100 to 500 | 10 to 100 | 1000 to 10000 | 1000 to 10000 | 1000 to 10000 | 500 to 1000
Cc1cccc2c(=O)n(-c3ccccc3)c([C@H](C)NC(=O)c3c(N)nn4cccnc34)nc12 [Compound 92] | 100 to 500 | 100 to 500 | 1000 to 10000 | 1000 to 10000 | 1000 to 10000 | 1000 to 10000
C[C@H](NC(=O)c1c(N)nn2cccnc12)c1cc2cccc(CC(=O)C(C)(C)C)c2c(=O)n1-c1ccccc1 [Compound 94] | 500 to 1000 | 100 to 500 | 1000 to 10000 | 1000 to 10000 | 1000 to 10000 | 1000 to 10000
C[C@H](NC(=O)c1c(N)nn2cccnc12)c1nc2ccccc2c(=O)n1-c1ccccc1 [Compound 95] | 10 to 100 | 10 to 100 | 1000 to 10000 | 500 to 1000 | 1000 to 10000 | 100 to 500
C[C@H](NC(=O)c1c(N)nn2cccnc12)c1oc2ccc(F)cc2c(=O)c1-c1ccccc1 [Compound 96] | 100 to 500 | 100 to 500 | 1000 to 10000 | 1000 to 10000 | 1000 to 10000 | 1000 to 10000

Source: US9751888B2, “Heterocyclic compounds and uses thereof” (Infinity Pharmaceuticals, Inc., priority 2013, dated 2017)
